According to patent US10934303B2, “Aryl ethene derivative and pharmaceutical composition containing same as active ingredient” (priority 2016, dated 2021):
Where two headings read alike, the source gives them in different places.

How the values were obtained:
[1] = biological target: GST-bound ERR alpha LBD (Homo sapiens (Human), UniProt P11474); details: TR-FRET, PGC1a coactivator; read-out: Binding Assay, IC50 ERRα
Procedure: (§2) The arylethene derivative of the present invention was sequentially added to a 384 well plate from a concentration of 10 μM to a final concentration of two-fold dilution. […] After all reagents were added, a reaction was carried out with gentle shaking at 20° C. for 1 hour, and after the reaction, a binding activity was measured by a TR-FRET method.

[2] = biological target: GST-bound ER alpha ligand-binding domain (LBD) (Homo sapiens (Human), UniProt P03372); assay: biochemical; details: TR-FRET, beta-estradiol 4 nM as agonist; read-out: Binding Assay, IC50 ERα
Chain of GST-bound ER alpha ligand-binding domain (LBD) (P03372 whole entry, looked up, the tested form may be a part): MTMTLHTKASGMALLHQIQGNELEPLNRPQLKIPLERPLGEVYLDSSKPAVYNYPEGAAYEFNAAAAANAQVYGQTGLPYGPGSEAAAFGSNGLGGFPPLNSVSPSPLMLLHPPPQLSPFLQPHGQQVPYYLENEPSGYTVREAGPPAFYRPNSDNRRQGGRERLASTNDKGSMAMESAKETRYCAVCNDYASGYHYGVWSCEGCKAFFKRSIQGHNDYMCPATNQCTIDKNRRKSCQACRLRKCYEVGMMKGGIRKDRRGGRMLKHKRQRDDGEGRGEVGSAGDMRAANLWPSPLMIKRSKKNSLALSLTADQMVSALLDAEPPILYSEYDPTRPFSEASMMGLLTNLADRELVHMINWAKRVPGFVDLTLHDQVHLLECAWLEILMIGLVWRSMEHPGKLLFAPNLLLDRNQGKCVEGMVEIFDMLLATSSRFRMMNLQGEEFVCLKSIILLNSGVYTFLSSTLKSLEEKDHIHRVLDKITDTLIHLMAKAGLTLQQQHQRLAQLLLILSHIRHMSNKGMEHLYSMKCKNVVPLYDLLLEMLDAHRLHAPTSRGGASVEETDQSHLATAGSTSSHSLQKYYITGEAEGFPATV
Procedure: as §2

[3] = tested on: ERRγ; format: cell-based
Procedure: AD293 was cultured in a 24-well plate for 24 hours, using a DMEM High glucose culture medium (Hyclone, USA) to which 0.5% FBS was added at a concentration of 9×10^4/well. The culture medium was replaced with a DMEM High glucose culture medium to which 10% FBS was added, treatment was performed with a mixture of a TransIT-LT1 transfection reagent (Mirus, USA) and pCMX-Gal4-ERRγ, pFR-luciferase reporter plasmid, pCMV-β-gal, and culturing was performed for 24 hours. Thereafter, a luciferase activity assay and a β-gal assay were performed, respectively, with a lysate obtained after treatment with the arylethene derivative of the present invention for 24 hours. All results were derived from three or more independent repetitive experiments.

[4] = biological target: CYP1A2 (Homo sapiens (Human), UniProt P05177); assay: Cytochrome P450 activity inhibition, CYP1A2; format: in vitro ADME; details: 10 μM, human liver microsomes, Phenacetin substrate
Chain of CYP1A2 (P05177 whole entry): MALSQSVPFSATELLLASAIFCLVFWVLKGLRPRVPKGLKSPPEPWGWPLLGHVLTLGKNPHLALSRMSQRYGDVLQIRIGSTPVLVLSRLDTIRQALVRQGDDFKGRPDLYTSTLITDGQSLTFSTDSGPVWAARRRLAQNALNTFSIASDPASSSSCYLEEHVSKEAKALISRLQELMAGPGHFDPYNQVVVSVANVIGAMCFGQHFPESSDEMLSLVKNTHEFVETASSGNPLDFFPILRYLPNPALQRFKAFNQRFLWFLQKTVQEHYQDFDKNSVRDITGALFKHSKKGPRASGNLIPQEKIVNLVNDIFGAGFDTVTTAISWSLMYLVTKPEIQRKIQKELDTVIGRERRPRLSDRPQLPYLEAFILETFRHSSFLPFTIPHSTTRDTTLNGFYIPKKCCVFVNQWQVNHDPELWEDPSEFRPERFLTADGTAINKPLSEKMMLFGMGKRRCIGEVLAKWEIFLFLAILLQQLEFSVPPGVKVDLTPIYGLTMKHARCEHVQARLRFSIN
Excerpt: (§1) 1) Cytochrome P450 (CYP450) Activity Inhibition Evaluation

[5] = biological target: CYP2C9 (Homo sapiens (Human), UniProt P11712); assay: Cytochrome P450 activity inhibition, CYP2C9; format: in vitro ADME; details: 10 μM, human liver microsomes, Diclofenac substrate
Chain of CYP2C9 (P11712 whole entry): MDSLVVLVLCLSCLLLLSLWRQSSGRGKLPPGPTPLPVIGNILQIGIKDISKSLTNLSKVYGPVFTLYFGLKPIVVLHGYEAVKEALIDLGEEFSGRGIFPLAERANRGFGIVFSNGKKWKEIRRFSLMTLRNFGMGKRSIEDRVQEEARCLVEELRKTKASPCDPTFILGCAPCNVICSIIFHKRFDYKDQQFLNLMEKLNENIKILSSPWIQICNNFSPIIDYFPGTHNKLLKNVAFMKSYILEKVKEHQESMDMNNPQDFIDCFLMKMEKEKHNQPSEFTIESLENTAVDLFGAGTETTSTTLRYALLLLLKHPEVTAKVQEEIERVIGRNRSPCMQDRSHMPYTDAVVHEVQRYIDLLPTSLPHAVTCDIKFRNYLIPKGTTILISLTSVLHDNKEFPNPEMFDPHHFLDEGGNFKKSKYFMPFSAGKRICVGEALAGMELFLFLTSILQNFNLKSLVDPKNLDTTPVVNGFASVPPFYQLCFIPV
Excerpt: as §1

[6] = biological target: CYP2C19 (Homo sapiens (Human), UniProt P33261); assay: Cytochrome P450 activity inhibition, CYP2C19; format: in vitro ADME; details: 10 μM, human liver microsomes, S-mephenytoin substrate
Chain of CYP2C19 (P33261 whole entry): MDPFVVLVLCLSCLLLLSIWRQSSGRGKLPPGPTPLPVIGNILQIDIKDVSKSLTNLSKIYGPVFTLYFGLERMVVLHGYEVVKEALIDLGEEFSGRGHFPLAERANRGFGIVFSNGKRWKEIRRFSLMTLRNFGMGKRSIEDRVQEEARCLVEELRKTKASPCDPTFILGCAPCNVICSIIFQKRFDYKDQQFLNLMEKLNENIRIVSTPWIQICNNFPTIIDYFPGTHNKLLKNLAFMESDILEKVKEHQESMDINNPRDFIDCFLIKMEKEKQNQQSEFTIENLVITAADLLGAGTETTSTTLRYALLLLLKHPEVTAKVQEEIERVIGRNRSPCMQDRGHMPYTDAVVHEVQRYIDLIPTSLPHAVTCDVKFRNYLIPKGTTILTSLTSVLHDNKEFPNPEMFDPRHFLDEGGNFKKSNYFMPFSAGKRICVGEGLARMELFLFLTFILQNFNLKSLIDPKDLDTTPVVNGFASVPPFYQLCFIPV
Excerpt: as §1

[7] = biological target: CYP2D6 (Homo sapiens (Human), UniProt P10635); assay: Cytochrome P450 activity inhibition, CYP2D6; format: in vitro ADME; details: 10 μM, human liver microsomes, Dextromethorphan substrate
Chain of CYP2D6 (P10635 whole entry): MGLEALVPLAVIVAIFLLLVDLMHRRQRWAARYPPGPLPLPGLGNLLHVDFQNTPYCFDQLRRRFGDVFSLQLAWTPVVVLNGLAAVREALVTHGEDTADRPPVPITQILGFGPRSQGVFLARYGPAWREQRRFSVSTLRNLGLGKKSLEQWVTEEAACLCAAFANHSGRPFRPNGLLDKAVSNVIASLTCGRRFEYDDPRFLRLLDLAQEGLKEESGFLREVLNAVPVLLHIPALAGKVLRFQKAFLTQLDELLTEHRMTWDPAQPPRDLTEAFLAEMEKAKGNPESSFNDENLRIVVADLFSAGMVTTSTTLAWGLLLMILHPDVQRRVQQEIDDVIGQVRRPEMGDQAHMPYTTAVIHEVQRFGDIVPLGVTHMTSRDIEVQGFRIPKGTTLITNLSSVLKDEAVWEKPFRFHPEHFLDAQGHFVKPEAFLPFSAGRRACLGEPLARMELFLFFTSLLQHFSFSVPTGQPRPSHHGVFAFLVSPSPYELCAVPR
Excerpt: as §1

[8] = biological target: CYP3A4 (Homo sapiens (Human), UniProt P08684); assay: Cytochrome P450 activity inhibition, CYP3A4; format: in vitro ADME; details: 10 μM, human liver microsomes, Midazolam substrate
Chain of CYP3A4 (P08684 whole entry): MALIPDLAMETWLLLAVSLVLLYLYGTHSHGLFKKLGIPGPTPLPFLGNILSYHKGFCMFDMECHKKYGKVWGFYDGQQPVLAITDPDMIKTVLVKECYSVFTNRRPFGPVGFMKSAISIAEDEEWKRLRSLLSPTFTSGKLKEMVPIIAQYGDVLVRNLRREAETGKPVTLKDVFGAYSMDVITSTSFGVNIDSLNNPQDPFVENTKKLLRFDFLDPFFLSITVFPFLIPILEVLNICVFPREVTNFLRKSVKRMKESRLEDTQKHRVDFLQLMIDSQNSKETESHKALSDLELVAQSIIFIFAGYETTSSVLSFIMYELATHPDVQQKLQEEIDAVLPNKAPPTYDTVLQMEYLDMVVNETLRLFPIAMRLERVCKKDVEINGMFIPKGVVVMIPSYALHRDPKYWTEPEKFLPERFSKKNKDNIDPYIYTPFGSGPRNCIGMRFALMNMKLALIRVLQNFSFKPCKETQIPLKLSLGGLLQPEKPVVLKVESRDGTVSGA
Excerpt: as §1

[9] = in vitro; format: in vitro ADME; details: PBS pH 7.4, 25° C., 5 hours
Procedure: 3) Parallel Artificial Membrane Permeability Assay (PAMPA) Evaluation
PAMPA is a method which has been developed for testing cell membrane permeability of a material in a test tube, and has been performed using a lipid tri-layer PVDF membrane available from Corning Gentest (NY, US), the used reagents were all purchased from Sigma (MO, US). First, a test material is diluted in PBS (pH 7.4) to a final concentration of 10 mM, 300 mL of the solution is added to the bottom well of a 96-transwell equipped with a PVDF membrane, and 200 mL of PBS is added to the upper well. Then, a plate is reacted at 25° C. for 5 hours, 20 mL of the solution in each well is transferred to a new container, and 80 mL of acetonitrile containing an internal standard material (4 mM chloropropamide) is added thereto. A concentration of the material in the solution is analyzed using LC-MS/MS (ThermoFisher Scientific, MO, US), and the transmittance of the material is calculated according to the equation reported in the reference document.

[10] = in vivo; format: in vivo; details: rat; for Cmax: read-out: Cmax
Procedure: An oral administration group fasts the day before.
Blood of each animal is collected at 0 hour.
Into a tail vein of an intravenous administration group (IV), a drug is injected at a dose of 1 mg/kg (syringe).
To an oral administration group (PO), a drug is orally administered at a dose of 10 mg/kg (oral zondec)
After administration, blood of the intravenous administration group was collected through a jugular vein 8 times at 0.08, 0.25, 0.5, 1, 2, 4, 6, and 8 hours. One collected blood amount is 400 to 500 ul.
After administration, blood of the oral administration group was collected through a jugular vein 6 times at 0.25, 0.5, 1, 4, 6 and 8 hours. One collected blood amount is 400 to 500 ul.
Supernatant plasma is collected by a centrifuge.
The supernatant plasma was injected into a LC-MS/MS system and the drug is analyzed.

[11] = 1 μM, 30 minutes, 37° C., NADPH
Procedure: 2) Microsomal Stability Evaluation
(§3) Four liver microsomes (Human, Dog, Rat, Mouse 0.5 mg/ml) with a 0.1 M phosphate buffer solution (pH 7.4), and the arylethene derivative of the present invention were added to a concentration of 1 μM, culturing was performed at 37° C. for 5 minutes in advance, a NADPH regeneration system solution was added thereto, and culturing was performed at 37° C. for 30 minutes. Thereafter, in order to complete the reaction, an acetonitrile solution containing an internal standard material (chlorpropamide) was added thereto, centrifugation (14,000 rpm, 4° C.) was performed for 5 minutes, and a supernatant was injected into a LC-MS/MS system to analyze the substrate drug, thereby evaluating metabolism stability to the arylethene derivative of the present invention.

[12] = 1 μM, 30 minutes, 37° C., NADPH; remark: listed apart in the source
Procedure: 2) Microsomal Stability Evaluation
as §3

[13] = 1 μM, 30 minutes, 37° C., NADPH; remark: listed apart in the source
[14] = biological target: T1, hERG channel (Homo sapiens (Human), UniProt Q12809); details: read-out: hERG IC50; fluorescence polarization assay
[15] = biological target: GST-bound ERR gamma ligand-binding domain (LBD) (Homo sapiens (Human), UniProt P62508); assay: ERRγ binding assay (inverse agonist assay), TR-FRET; details: TR-FRET, PGC1a coactivator; read-out: Binding Assay, IC50 ERRγ
Chain of GST-bound ERR gamma ligand-binding domain (LBD) (P62508 233-457): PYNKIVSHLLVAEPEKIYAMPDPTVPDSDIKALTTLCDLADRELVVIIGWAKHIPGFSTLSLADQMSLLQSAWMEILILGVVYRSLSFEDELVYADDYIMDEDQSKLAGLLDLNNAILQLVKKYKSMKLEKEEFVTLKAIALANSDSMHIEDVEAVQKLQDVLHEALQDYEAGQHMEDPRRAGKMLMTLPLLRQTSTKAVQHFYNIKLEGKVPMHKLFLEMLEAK
Procedure: 1) ERRγ Binding Assay (Inverse Agonist Assay)
as §2

[16] = biological target: ERRβ (Homo sapiens, UniProt O95718); details: TR-FRET, PGC1a coactivator; read-out: Binding Assay, IC50 ERRβ
Chain of ERRβ (O95718 whole entry, looked up): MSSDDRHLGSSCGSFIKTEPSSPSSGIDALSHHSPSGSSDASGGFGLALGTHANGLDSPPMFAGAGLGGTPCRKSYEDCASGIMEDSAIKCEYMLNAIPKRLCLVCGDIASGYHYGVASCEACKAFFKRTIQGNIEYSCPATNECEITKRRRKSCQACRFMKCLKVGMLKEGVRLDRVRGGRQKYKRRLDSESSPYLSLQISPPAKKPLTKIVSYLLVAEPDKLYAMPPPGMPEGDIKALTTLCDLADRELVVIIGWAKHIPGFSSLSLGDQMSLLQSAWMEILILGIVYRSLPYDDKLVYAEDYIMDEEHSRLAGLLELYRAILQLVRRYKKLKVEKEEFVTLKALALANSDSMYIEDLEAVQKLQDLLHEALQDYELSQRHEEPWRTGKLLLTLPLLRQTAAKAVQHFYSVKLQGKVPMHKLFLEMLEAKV
Procedure: as §2

[17] = biological target: T1, hERG channel; assay: biochemical
[18] = 1 μM, 30 minutes, 37° C., NADPH; remark: listed apart in the source
Procedure: 2) Microsomal Stability Evaluation
as §3

[19] = activity relative to reference compound GSK5182, 10 μM

Chain of GST-bound ERR alpha LBD (P11474 193-421): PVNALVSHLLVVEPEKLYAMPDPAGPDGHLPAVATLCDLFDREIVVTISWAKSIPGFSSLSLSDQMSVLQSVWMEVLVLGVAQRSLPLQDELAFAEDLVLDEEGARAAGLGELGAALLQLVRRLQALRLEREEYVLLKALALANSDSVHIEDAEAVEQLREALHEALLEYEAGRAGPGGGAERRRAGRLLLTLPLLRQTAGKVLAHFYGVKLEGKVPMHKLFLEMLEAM

Row | SMILES | IC50 [1] [µM] | IC50 [2] [µM] | Functional Assay at 10 μM (% of control), Cpds ([3]; 10 μM, 24 hours, AD293) | Functional Assay, Cpds/Ref 5182 [3, 19] | CYP inhibition (% of control) 1A2 [4] | CYP inhibition (% of control) 2C9 [5] | CYP inhibition (% of control) 2C19 [6] | CYP inhibition (% of control) 2D6 [7] | CYP inhibition (% of control) 3A4 [8] | Permeability Pampa [9] | MS(Microsomal Stability) (%) human [11] [%] | MS(Microsomal Stability) (%) rat [12] [%] | MS(Microsomal Stability) (%) mouse [13] [%] | IC50 [14] [µM] | IC50 [15] [µM] | IC50 [16] [µM] | MS(Microsomal Stability) (%) dog [18] [%] | also measured
1 | Cc1ccc(/C(=C(\CCCO)c2ccccc2)c2ccc(N3CCN(C(C)C)CC3)cc2)cc1 [Compound 18b] | > 10 | > 10 | 2.45 % of control | 0.78 | 89.8 % of control | 73.4 % of control | 69.7 % of control | 68.9 % of control | 53 % of control | 2.09 10^−6 cm/s | 54.2 | 40.0 | 19.7 | > 30 |  |  |  | AUCINF ([10]; IV, 1 mg/kg): 0.64 μMh; AUCall ([10]; IV, 1 mg/kg): 0.58 μMh; Vss ([10]; IV, 1 mg/kg): 9.8 L/kg; t1/2 ([10]; IV, 1 mg/kg): 3.1 h; AUCINF ([10]; PO, 10 mg/kg): 0.36 μMh; AUCall ([10]; PO, 10 mg/kg): 0.31 μMh; BA ([10]; PO, 10 mg/kg): 8.7%; Tmax ([10]; PO, 10 mg/kg): 0.6 h; Cmax ([10]; PO, 10 mg/kg): 120 nM
2 | OCCC/C(=C(\c1ccc(O)cc1)c1ccc(OCCN2CCC[C@@H]2CO)cc1)c1ccccc1 [Compound 38c] | > 10 | 0.408 | 4.06 % of control |  | 79.2 % of control | 55.3 % of control | 58.8 % of control | 54.3 % of control | 61.5 % of control |  |  |  |  |  | 0.091 | > 10 |  | Functional Assay, Cpds/Ref 5182 [3]: 0.99
3 | CN1CCC[C@@H]1COc1ccc(/C(=C(/CCCO)c2ccccc2)c2ccc(O)cc2)cc1 [Compound 6i] |  |  |  |  |  |  |  |  |  |  |  |  |  |  |  |  |  | Functional Assay at 10 μM (% of control), Cpds [3]: 5 % of control; Functional Assay, Cpds/Ref 5182 [3]: 1.62; IC50 [17]: > 30 µM
4 | Cc1ccc(/C(=C(\CCCO)c2ccccc2)c2ccc(N3CCNCC3)cc2)cc1 [Compound 20b] | > 10 | > 10 | 3.58 % of control | 0.88 |  |  |  |  |  | 3.61 10^−6 cm/s | 44 | 71.5 | 28.8 |  |  | 2.1 | 58 | 
5 | CC(C)(C)OC(=O)N1CCN(c2ccc(/C(=C(/CCCO)c3ccccc3)c3ccc(Br)cc3)cc2)CC1 [Compound 18n] | 8.25 | 8.8 | 3.36 % of control | 0.82 |  |  |  |  |  | 0.63 10^−6 cm/s |  |  |  |  |  | 1.09 |  | 
6 | OCCC/C(=C(\c1ccc(O)cc1)c1ccc(C2CCN(C3CC3)C2)cc1)c1ccccc1 (stereo not drawn) [Compound 22t] | > 10 | 5.94 | 6.19 % of control |  |  |  |  |  |  |  |  |  |  |  |  | 3.56 |  | 
7 | CC(C)N1CCC(c2ccc(/C(=C(/CCCO)c3ccccc3)c3cccc(O)c3)cc2)CC1 [Compound 22m] | > 10 | > 10 |  |  | 97 % of control | 80.3 % of control | >100 % of control | 70.7 % of control | 58.1 % of control |  | 55.3 | 53.5 | 24.2 |  |  | 7.82 | 55.0 | AUCINF ([10]; IV, 1 mg/kg): 0.00 μMh; AUCall ([10]; IV, 1 mg/kg): 0.34 μMh; Vss ([10]; IV, 1 mg/kg): 19.9 L/kg; t1/2 ([10]; IV, 1 mg/kg): 2.4 h; AUCINF ([10]; PO, 10 mg/kg): 0.00 μMh; AUCall ([10]; PO, 10 mg/kg): 0.73 μMh; BA ([10]; PO, 10 mg/kg): 24.3%; Tmax ([10]; PO, 10 mg/kg): 2.4 h; t1/2 ([10]; PO, 10 mg/kg): 4.3 h; Cmax ([10]; PO, 10 mg/kg): 130 nM
8 | CN1CCCC1CCOc1ccc(/C(=C(/CCCO)c2ccccc2)c2ccc(O)cc2)cc1 (stereo not drawn) [Compound 6g] | > 10 | 0.331 | 4.94 % of control | 1.60 |  |  |  |  |  |  |  |  |  | 5.4 | 0.03 |  |  | 
9 | OCCC/C(=C(\c1ccc(O)cc1)c1ccc(N2CCNCC2)cc1)c1ccccc1 [Compound 20j] | > 10 | 0.992 | 1.41 % of control | 1.38 | 93.6 % of control | 77.1 % of control | 62 % of control | 89.3 % of control | 66.2 % of control |  | 76.8 | 84.5 | 25.3 |  |  | 4.93 | 68.3 | 
10 | CC(C)N1CCC(c2ccc(/C(=C(/CCCO)c3ccccc3)c3ccc(O)cc3)cc2)CC1 [Compound 22g] | > 10 | 4.37 |  |  |  |  |  |  |  |  | 42.8 | 43.2 | 10.7 | 22 |  |  | 54.3 | 
11 | OCCC/C(=C(\c1ccc(O)cc1)c1ccc(OCCN2C[C@H]3C[C@H]3[C@H]2CO)cc1)c1ccccc1 [Compound 38d] |  | 0.276 | 3.16 % of control | 0.77 | 79.2 % of control | 55.3 % of control | 58.8 % of control | 54.3 % of control | 57.6 % of control |  | 6.9 | 11.7 | 11.8 |  | 0.083 | 8.8 |  | 
12 | CCN1CCN(c2ccc(/C(=C(/CCCO)c3ccccc3)c3ccc(O)cc3)cc2)CC1 [Compound 18i] | > 10 | 1.14 | 1.88 % of control | 0.97 |  |  |  |  |  | 1.16 10^−6 cm/s |  |  |  | > 30 | 0.05 |  |  | 
